Experiments:
Assay in all cases: relative viability (nuclei count vs DMSO), 5 days (fraction); higher = more cells survive
[1] = compound: C1=CC=C2C(=C1)N=C(S2)C(C#N)C3=NC(=NC=C3)NCCC4=CN=CC=C4 + O=C(CCCCCCC(=O)Nc1ccccc1)NO [Vorinostat] (partner 1 µM)
Summary of the method: (§1)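 For relative viability, nuclei counts in treated wells were divided by those in vehicle wells. Lung cancer cell lines had been pin-tool dosed in 1536-well plates the day after seeding and cultured for 5 days, then fixed and stained in one step (final 0.05% Triton X-100, 1% formaldehyde, 1 ug/ml Hoechst) and imaged at 4×. Doses were one drug alone or a fixed anchor-drug dose plus five library-drug doses (not always all listed) in √10 steps, and values are duplicate-plate medians.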

CUDC-101 + Tozasertib = compound: C#Cc1cccc(Nc2ncnc3cc(OC)c(OCCCCCCC(=O)NO)cc23)c1 [CUDC-101] + Cc1cc(Nc2cc(N3CCN(C)CC3)nc(Sc3ccc(NC(=O)C4CC4)cc3)n2)n[nH]1 [Tozasertib] (partner 0.1 µM)
Summary of the method: as §1

[2] = compound: C1=CC=C2C(=C1)N=C(S2)C(C#N)C3=NC(=NC=C3)NCCC4=CN=CC=C4 + CC(=O)Nc1cccc(-n2c(=O)n(C3CC3)c(=O)c3c(Nc4ccc(I)cc4F)n(C)c(=O)c(C)c32)c1 [Trametinib] (partner 0.02 µM)
Summary of the method: as §1

[3] = compound: C1=CC=C2C(=C1)N=C(S2)C(C#N)C3=NC(=NC=C3)NCCC4=CN=CC=C4 + COc1cccc2cc(-c3nc([C@H]4CC[C@H](C(=O)O)CC4)n4ncnc(N)c34)[nH]c12 [OSI-027] (partner 0.5 µM)
Summary of the method: as §1

| Cell Line | relative viability ([1]; first compound 0.005 µM) | relative viability ([1]; first compound 0.01581 µM) | relative viability ([1]; first compound 0.05 µM) | relative viability ([1]; first compound 0.1581 µM) | relative viability ([1]; first compound 0.5 µM) | relative viability (CUDC-101 + Tozasertib; first compound 0.01 µM) | relative viability (CUDC-101 + Tozasertib; first compound 0.03162 µM) | relative viability (CUDC-101 + Tozasertib; first compound 0.1 µM) | relative viability (CUDC-101 + Tozasertib; first compound 0.3162 µM) | relative viability (CUDC-101 + Tozasertib; first compound 1 µM) | relative viability ([2]; first compound 0.005 µM) | relative viability ([2]; first compound 0.01581 µM) | relative viability ([2]; first compound 0.05 µM) | relative viability ([2]; first compound 0.1581 µM) | relative viability ([2]; first compound 0.5 µM) | relative viability ([3]; first compound 0.005 µM) | relative viability ([3]; first compound 0.01581 µM) | relative viability ([3]; first compound 0.05 µM) | relative viability ([3]; first compound 0.1581 µM) | relative viability ([3]; first compound 0.5 µM) |
| --- | --- | --- | --- | --- | --- | --- | --- | --- | --- | --- | --- | --- | --- | --- | --- | --- | --- | --- | --- | --- |
| HARA | 0.663 | 0.718 | 0.559 | 0.59 | 0.614 | 0.116 | 0.108 | 0.101 | 0.0938 | 0.0704 | 0.685 | 0.475 | 0.49 | 1.31 | 0.576 | 0.602 | 0.373 | 0.493 | 0.464 | 0.472 |
| 201T | 0.819 | 0.918 | 0.949 | 0.997 | 0.959 | 0.927 | 0.899 | 0.876 | 0.69 | 0.536 | 0.675 | 0.756 | 0.739 | 0.748 | 0.693 | 0.935 | 0.696 | 0.7 | 0.833 | 0.779 |
| EMC-BAC-2 | 0.491 | 0.299 | 0.48 | 0.476 | 0.411 | 0.312 | 0.208 | 0.251 | 0.209 | 0.199 | 1.03 | 0.938 | 0.812 | 0.963 | 0.855 | 0.364 | 0.37 | 0.38 | 0.394 | 0.366 |
| NCI-H441 | 0.587 | 0.84 | 0.818 | 0.789 | 0.643 | 0.536 | 0.683 | 0.645 | 0.599 | 0.435 | 0.444 | 0.409 | 0.432 | 0.49 | 0.307 | – | 0.669 | 0.556 | 0.719 | 0.487 |
| NCI-H1944 | 0.638 | 0.521 | 0.537 | 0.558 | 0.52 | 0.268 | 0.213 | 0.275 | 0.236 | 0.17 | 0.429 | 0.463 | 0.379 | 0.405 | 0.398 | 0.396 | 0.343 | 0.417 | 0.513 | 0.359 |
| NCI-H727 | 1.38 | 1.08 | 1.1 | 1.38 | 1.37 | 0.56 | 0.556 | 0.56 | 0.673 | 0.407 | 0.39 | 0.364 | 0.399 | 0.381 | 0.407 | 0.814 | 0.526 | 0.568 | 0.748 | 0.508 |
| NCI-H1993 | 0.66 | 0.717 | 0.638 | 0.837 | 0.501 | 0.592 | 0.517 | 0.624 | 0.53 | 0.502 | 0.374 | 0.516 | 0.458 | 0.514 | 0.466 | 0.579 | 0.555 | 0.637 | 0.626 | 0.585 |
| ChaGo-K-1 | 0.584 | 0.809 | 0.702 | 0.863 | 0.724 | 0.216 | 0.214 | 0.246 | 0.238 | 0.208 | 0.683 | 0.949 | 0.913 | 0.957 | 0.715 | – | 0.491 | 0.616 | 0.587 | 0.452 |
| NCI-H3122 | 0.923 | 1.34 | 0.97 | 1.05 | 1.1 | 0.373 | 0.451 | 0.391 | 0.321 | 0.386 | 0.178 | 0.238 | 0.221 | 0.216 | 0.197 | 0.671 | 0.923 | 0.895 | 1.34 | 0.819 |
| NCI-H1651 | 0.555 | 0.538 | 0.572 | 0.609 | 0.559 | 0.622 | 0.712 | 0.613 | 0.788 | 0.585 | 0.825 | 0.831 | 0.827 | 0.933 | 0.857 | 0.69 | 0.672 | 0.72 | 0.939 | 0.674 |
| NCI-H1355 | 0.596 | 0.625 | 0.649 | 0.67 | 0.564 | 0.518 | 0.539 | 0.5 | 0.544 | 0.384 | 0.439 | 0.425 | 0.473 | 0.494 | 0.324 | 0.402 | 0.348 | 0.341 | 0.411 | 0.369 |
| NCI-H596 | 0.463 | 0.446 | 0.716 | 0.654 | 0.676 | 0.632 | 0.716 | 0.871 | 0.917 | 0.819 | 0.7 | 0.86 | 0.762 | 0.777 | 0.765 | 0.541 | 0.682 | 0.595 | 0.826 | 0.674 |

Source: the supplement of paper PMC10307832
